Key:
CRISP2 = target: T1, CRISP2 (Homo sapiens, UniProt P16562); assay: MST binding to CRISP2; set-up: species or system mammalian; details: calcium chloride titration, read-out: Kd, calcium binding by CRISP2
T1 construct: made in house; host or cells: E. coli BL21
T1 sequence (P16562 22-243): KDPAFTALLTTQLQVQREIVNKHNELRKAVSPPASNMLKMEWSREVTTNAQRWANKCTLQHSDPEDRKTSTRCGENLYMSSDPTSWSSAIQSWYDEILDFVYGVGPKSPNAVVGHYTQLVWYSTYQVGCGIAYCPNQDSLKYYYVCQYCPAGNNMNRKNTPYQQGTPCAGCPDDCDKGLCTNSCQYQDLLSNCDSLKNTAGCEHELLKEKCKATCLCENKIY
Source text: To confirm the direct interaction of PSP94 with CRISP3 and to test whether PSP94 would also bind other CAP family members such as yeast Pry1, or CRISP2, we performed in vitro protein binding assay using microscale thermophoresis (MST). Therefore, PSP94 and the CAP family members, Pry1, CRISP2, and CRISP3, were expressed as fusion proteins with a C-terminal polyhistidine tag in Escherichia coli, and the proteins were affinity purified on nickel-NTA agarose beads. The purified CAP proteins were then fluorescently labeled using RED-tris-NTA and incubated with varying concentrations of PSP94. […] PSP94 thus has high binding affinity for all three CAP proteins tested, and it also binds the CAP domain of Pry1 (Pry1^CAP) alone.
DNA encoding proteins of interest were PCR amplified and cloned into NcoI and XhoI restriction sites of pET22b, which contains a PelB signal sequence to direct the secretion of expressed protein into the periplasmic space. Plasmids were transformed into E. coli BL21, and proteins were expressed with a C-terminal polyhistidine tag. Different induction strategies were used: overnight induction with lactose at 24 °C for Pry1, CRISP2, and PSP94 and 6 h of induction with 0.4 mM IPTG at 24 °C for the CAP domain of Pry1. Cells were collected and lysed, and the soluble cell lysate was incubated with nickel-nitrilotriacetic acid beads as per the manufacturer instructions (Qiagen). Beads were washed and loaded onto a Ni^2+-NTA column, and proteins were eluted with a buffer containing 60 mM NaH2PO4, 300 mM NaCl, and 300 mM imidazole, pH 8.0. […] Protein concentration was determined by Lowry assay using the Folin reagent and bovine serum albumin as protein standard.
MST experiments were performed to assess protein–protein, protein–lipid, and protein–calcium interactions using a Monolith NT.115 (Nanotemper Technologies). […] The dissociation constant Kd was obtained by plotting the normalized fluorescence (Fnorm) against the logarithm of ligand concentration. […]

[1] = test system: sterol export by CAP proteins (Pry1, CRISP2, CRISP3); assay: In vivo sterol export assay ([14C]cholesteryl acetate export) in yeast; type: cell-based, Saccharomyces cerevisiae; details: 10 mM calcium in medium, cells expressing CRISP2 and PSP94
Source text: To test whether expression of PSP94 would affect the function of Pry1 in sterol export, we expressed PSP94 fused to the N-terminal signal sequence from Pry1 (amino acids 1–19) from a constitutive alcohol dehydrogenase promoter (ADH1) to direct the protein into the yeast secretory pathway. This PSP94-containing plasmid was then transformed into heme-deficient yeast cells lacking the sterol deacetylase Say1 (hem1Δ say1Δ). This strain is able to take up radiolabeled [^14C]cholesterol, acetylate it in an alcohol acetyltransferase 2 (Atf2)-dependent pathway, and secrete the resulting radiolabeled cholesteryl acetate back into the culture medium ([29]). […] To test whether expression of PSP94 would affect the synthesis or secretion of Pry1, CRISP2, or CRISP3, we coexpressed FLAG-tagged PSP94 with hemagglutinin (HA)-tagged Pry1, CRISP2, or CRISP3, separated yeast cells from the culture medium, precipitated proteins from both fractions with trichloroacetic acid (TCA), and detected the tagged proteins by Western blotting.
The sterol export assay was performed as described ([29]). […] Extracted radiolabeled lipids were quantified by scintillation counting, and volumes corresponding to 10,000 cpm (counts per minute) were dried. […] TLC plates were then exposed to phosphorimager screens, and radiolabeled lipids were visualized and quantified using a phosphorimager. […]

PSP94 = target: T2, PSP94 (Homo sapiens, UniProt P08118); assay: MST binding to PSP94; details: calcium chloride titration
T2 construct: made in house; host or cells: E. coli BL21
T2 sequence (P08118 21-114): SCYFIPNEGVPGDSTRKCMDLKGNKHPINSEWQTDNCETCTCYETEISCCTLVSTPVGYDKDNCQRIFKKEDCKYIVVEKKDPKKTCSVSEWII
Method: To test whether the interaction between PSP94 and CAP family members affects their sterol binding in vitro, we performed ligand binding assays using a more water-soluble cholesterol derivative, cholesterol sulfate. […] In the presence of an equimolar concentration of PSP94, however, sterol binding by the CAP proteins was blocked (Fig. 3B).
MST experiments were performed to assess protein–protein, protein–lipid, and protein–calcium interactions using a Monolith NT.115 (Nanotemper Technologies). Proteins were labeled using the RED-tris-NTA His tag protein labeling kit. Labeled CAP proteins, 100 nM, were mixed with a serial dilution of unlabeled PSP94, PSP9^F24G, cholesterol sulfate, or calcium chloride, prepared in binding buffer (20 mM Tris pH 7.5, 30 mM NaCl, 0.05% Triton X-100). Samples were loaded into MST standard capillaries, and MST measurements were performed using an 80% laser power setting. The dissociation constant Kd was obtained by plotting the normalized fluorescence (Fnorm) against the logarithm of ligand concentration. Experiments were performed in triplicates, and data were fitted using the Kd model of the MO.Affinity Analysis software (Nanotemper Technologies). For binding inhibition studies, CAP proteins and PSP94 were preincubated for 5 min at 24 °C before performing binding studies with cholesterol sulfate.

[2] = target: T3, CRISP2–PSP94 heteromeric complex (Homo sapiens, UniProt P16562); assay: Coimmunoprecipitation of PSP94-FLAG with CRISP2-HA from culture medium; type: cell-based, Saccharomyces cerevisiae
T3 construct: expressed in transfected cells; host or cells: Saccharomyces cerevisiae, plasmids pRS416 (CRISP2) and pRS414 (PSP94), ADH1 promoter
Method: To test whether calcium also affects the formation of the heteromeric complex in vivo, we analyzed complex formation by coimmunoprecipitation. Cells expressing CRISP2-HA and PSP94-FLAG were cultivated in the absence or presence of calcium (5 and 10 mM CaCl2), CRISP2-HA was immunoprecipitated from the culture medium, and Western blots were probed for the presence of PSP94-FLAG.
For Coimmunoprecipitation analysis, CRISP2 wildtype and mutant versions were tagged with an HA epitope tag, and wildtype PSP94 and the PSP94^F24G mutant version were fused to a FLAG tag. Yeast strains expressing these proteins were grown overnight and collected by centrifugation. The cell pellet was resuspended in lysis buffer (50 mM Tris-HCl pH 7.5, 100 mM NaCl, 0.1% NP-40, 10% glycerol, protease inhibitor, and 1 mM PMSF), and cells were broken with glass beads in a Precellys homogenizer. The culture medium was concentrated using size-exclusion protein concentrator spin columns (3K MWCO, Pierce, Thermo Scientific). Protein concentration was estimated by Bradford assay (Bio-Rad), and both the cell lysate and concentrated culture medium were incubated overnight at 4 °C with anti-HA magnetic beads (Pierce, Thermo Scientific). […] Samples were denatured for 10 min at 95 °C and analyzed by SDS-PAGE and Western blotting. […]

[Ca+2] [calcium, calcium chloride]
Kd (CRISP2): 0.052 ± 0.0009 µM
effect on sterol export by CRISP2 in the presence of PSP94 [1]: restored sterol binding and export by CRISP2
Kd (PSP94): 376 ± 1.7 µM
complex formation between CRISP2 and PSP94 ([2]; cells grown in 5 mM calcium): reduced
complex formation between CRISP2 and PSP94 ([2]; cells grown in 10 mM calcium): could no longer be detected

Source: paper PMC8857485, “Prostate secretory protein 94 inhibits sterol binding and export by the mammalian CAP protein CRISP2 in a calcium-sensitive manner” (The Journal of Biological Chemistry, 2022)
